Test results reported in patent publication US9815820B2, “Rho kinase inhibitors” (priority 2012, dated 2017).
“Also recorded” adds a separate entry of the source.

Columns and labels:
[1] = system: TGF-β-induced STAT3, MLC and SMAD2/3 phosphorylation; test: TGF-β-induced phosphorylation of STAT3, MLC and SMAD2/3 in Tregs
PBMCs = test: ex vivo anti-CD3/CD28 stimulation of cytokine production in PBMCs isolated from treated patients; design: species or system human; conditions: 120 mg/day on days 1 and 8-14
CD4+ human T cells [2] = test: cytokine secretion in anti-CD3/CD28 stimulated CD4+ T cells in vitro; type: cell-based; conditions: anti-CD3/CD28 stimulation
CD4+CD25+ human Tregs = test: Treg suppression of IL-17 secretion in CD4+CD25- effector T cells; type: cell-based; conditions: Tregs treated 3 hours; Treg:Teff 1:4 and 1:9
human CD4+ T cells = test: Foxp3 expression in CD4+ T cells after Th17 skewing activation; type: cell-based; conditions: 5 days of Th17 skewing activation
STAT3 phosphorylation = STAT3 phosphorylation in T cells; type: cell-based, human
[3] = system: CD4+ T cells from RA patients; test: cytokine secretion ex vivo in CD3/CD28 stimulated CD4+ T cells from RA patients; type: cell-based, human
CD4+ human T cells [4] = test: proliferation of T cells in response to TCR stimulation in vitro; type: cell-based; conditions: listed as KD025
[5] = CD4+ T cells from RA patients, ex vivo, listed as KD025

Q: With `CC(C)NC(=O)COc1cccc(-c2nc(Nc3ccc4[nH]ncc4c3)c3ccccc3n2)c1` [SLx-2119] as the molecule, how does the “phosphorylation of SMAD2/3” value [1] read?
A: remains intact

Q: What about the “TGF-β-induced MLC phosphorylation” value ([1]; dose-dependent) of the same molecule?
A: down-regulates

Q: And the “TGF-β-induced STAT3 phosphorylation” value ([1]; dose-dependent)?
A: down-regulates

Q: What about the “IFN-γ in PBMCs” value (PBMCs) of the same molecule?
A: No effect

Q: And the “induction of IL-17 secretion in PBMCs” value (PBMCs)?
A: significantly inhibited in PBMCs isolated from four of five patients

Q: What about the “induction of IL-21 secretion in PBMCs” value (PBMCs) of the same molecule?
A: significantly inhibited in PBMCs from all five patients

Q: What about the IFN-γ secretion (CD4+ human T cells [2]) of the same molecule?
A: less robust and significant only at high dose (10 μM)

Q: What about the IL-2 secretion (CD4+ human T cells [2]) of the same molecule?
A: observed only at the highest concentration (10 μM)

Q: What about the IL-17 secretion (CD4+ human T cells [2]; listed as KD025) of the same molecule?
A: inhibits; also recorded: significantly inhibited

Q: What about the IL-21 secretion (CD4+ human T cells [2]; listed as KD025) of the same molecule?
A: inhibits; also recorded: significantly inhibited

Q: And the “ability of Tregs to suppress IL-17 secretion in CD4+CD25- effector T cells” value (CD4+CD25+ human Tregs)?
A: significantly increased

Q: What about the “percentage of Foxp3+ cells” value (human CD4+ T cells) of the same molecule?
A: significantly increased

Q: And the STAT3 phosphorylation (STAT3 phosphorylation; Th17-skewing conditions 5 days, then treatment 3 hours)?
A: STAT3 phosphorylation was reduced

Q: And the “phosphorylation of STAT3, IRF4 and RORγt” value (STAT3 phosphorylation; anti-CD3/CD28, TGF-β and IL-1β, 48 hours (FIG. 9C))?
A: reduced phosphorylation of STAT3, as well as IFR4 and RORγT, was confirmed

Q: What about the “phosphorylation of STAT3” value (STAT3 phosphorylation; pre-treatment, then anti-CD3/CD28 stimulation) of the same molecule?
A: reduced phosphorylation of STAT3

Q: What about the “frequencies of IL-17 and IFN-γ-producing cells” value ([3]; 2 RA patients, intracellular staining) of the same molecule?
A: significantly reduced the frequencies

Q: What about the IFN-γ secretion [3, 5] of the same molecule?
A: inhibits; also recorded: significantly down-regulated

Q: And the IL-17 secretion [3, 5]?
A: inhibits; also recorded: significantly down-regulated

Q: What about the IL-21 secretion [3, 5] of the same molecule?
A: inhibits; also recorded: significantly down-regulated

Q: What about the “proliferation in response to TCR stimulation” value (CD4+ human T cells [4]) of the same molecule?
A: inhibits; also recorded: down-regulated their ability to proliferate
